Measured values as given in the supplement of paper PMC4932681.

What was measured:
ZR-75-1 [1] = experiment: drug sensitivity score (DSS) (DSS (dimensionless)); higher = more sensitive; extreme values may be limits of the assay; settings: 72 h
Summary of the method: (§1)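 Breast cancer cell lines and their resistant derivatives were seeded into 384-well plates containing library drugs at five concentrations across a 10 000-fold range, with resistant lines kept in medium with 1 μM of the selecting drug. After 72 h at 37 °C, CellTiter-Glo viability was read on a PHERAstar and normalised to vehicle-only and positive controls. Logistic dose–response fits in the Breeze pipeline gave drug sensitivity score, relative IC50 (curve midpoint) and top-dose inhibition.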

ZR-75-1 Tam1 [2] = experiment: as above; settings: 4-OH-tamoxifen in medium 1 µM; 72 h
Summary of the method: as §1

T-47D [3] = experiment: as above; settings: 72 h
Summary of the method: as §1

MCF-7 Tam1 [4] = experiment: as above; settings: 4-OH-tamoxifen in medium 1 µM; 72 h
Summary of the method: as §1

BT-474 Tam2 [5] = experiment: as above; settings: 4-OH-tamoxifen in medium 1 µM; 72 h
Summary of the method: as §1

BT-474 [6] = experiment: as above; settings: 72 h
Summary of the method: as §1

ZR-75-1 Tam2 [7] = experiment: as above; settings: 4-OH-tamoxifen in medium 1 µM; 72 h
Summary of the method: as §1

BT-474 Tam1 [8] = experiment: as above; settings: 4-OH-tamoxifen in medium 1 µM; 72 h
Summary of the method: as §1

MCF-7 [9] = experiment: as above; settings: 72 h
Summary of the method: as §1

T-47D Tam1 [10] = experiment: as above; settings: 4-OH-tamoxifen in medium 1 µM; 72 h
Summary of the method: as §1

T-47D Tam2 [11] = experiment: as above; settings: 4-OH-tamoxifen in medium 1 µM; 72 h
Summary of the method: as §1

ZR-75-1 [12] = experiment: relative IC50 (midpoint of fitted logistic curve, plateau may be below 50% inhibition; CellTiter-Glo viability); higher = less potent; settings: 72 h
Summary of the method: as §1

ZR-75-1 Tam1 [13] = experiment: as above; settings: 4-OH-tamoxifen in medium 1 µM; 72 h
Summary of the method: as §1

T-47D [14] = experiment: as above; settings: 72 h
Summary of the method: as §1

MCF-7 Tam1 [15] = experiment: as above; settings: 4-OH-tamoxifen in medium 1 µM; 72 h
Summary of the method: as §1

BT-474 Tam2 [16] = experiment: as above; settings: 4-OH-tamoxifen in medium 1 µM; 72 h
Summary of the method: as §1

BT-474 [17] = experiment: as above; settings: 72 h
Summary of the method: as §1

ZR-75-1 Tam2 [18] = experiment: as above; settings: 4-OH-tamoxifen in medium 1 µM; 72 h
Summary of the method: as §1

BT-474 Tam1 [19] = experiment: as above; settings: 4-OH-tamoxifen in medium 1 µM; 72 h
Summary of the method: as §1

MCF-7 [20] = experiment: as above; settings: 72 h
Summary of the method: as §1

T-47D Tam1 [21] = experiment: as above; settings: 4-OH-tamoxifen in medium 1 µM; 72 h
Summary of the method: as §1

T-47D Tam2 [22] = experiment: as above; settings: 4-OH-tamoxifen in medium 1 µM; 72 h
Summary of the method: as §1

| Structure (SMILES) | relative IC50 (T-47D [14]; 4-OH-tamoxifen in medium 0 µM) | relative IC50 (T-47D [14]; 4-OH-tamoxifen in medium 1 µM) | relative IC50 (MCF-7 Tam1 [15]) | relative IC50 (BT-474 Tam2 [16]) | relative IC50 (BT-474 [17]; 4-OH-tamoxifen in medium 0 µM) | relative IC50 (BT-474 [17]; 4-OH-tamoxifen in medium 1 µM) | relative IC50 (BT-474 Tam1 [19]) | relative IC50 (MCF-7 [20]; 4-OH-tamoxifen in medium 0 µM) | relative IC50 (MCF-7 [20]; 4-OH-tamoxifen in medium 1 µM) | relative IC50 (T-47D Tam1 [21]) | relative IC50 (T-47D Tam2 [22]) | drug sensitivity score (ZR-75-1 [1]; 4-OH-tamoxifen in medium 0 µM) | drug sensitivity score (ZR-75-1 [1]; 4-OH-tamoxifen in medium 1 µM) | drug sensitivity score (ZR-75-1 Tam1 [2]) | drug sensitivity score (T-47D [3]; 4-OH-tamoxifen in medium 0 µM) | drug sensitivity score (T-47D [3]; 4-OH-tamoxifen in medium 1 µM) | drug sensitivity score (MCF-7 Tam1 [4]) | drug sensitivity score (BT-474 Tam2 [5]) | drug sensitivity score (BT-474 [6]; 4-OH-tamoxifen in medium 0 µM) | drug sensitivity score (BT-474 [6]; 4-OH-tamoxifen in medium 1 µM) | drug sensitivity score (ZR-75-1 Tam2 [7]) | drug sensitivity score (BT-474 Tam1 [8]) | drug sensitivity score (MCF-7 [9]; 4-OH-tamoxifen in medium 0 µM) | drug sensitivity score (MCF-7 [9]; 4-OH-tamoxifen in medium 1 µM) | drug sensitivity score (T-47D Tam1 [10]) | drug sensitivity score (T-47D Tam2 [11]) | relative IC50 (ZR-75-1 [12]; 4-OH-tamoxifen in medium 0 µM) | relative IC50 (ZR-75-1 [12]; 4-OH-tamoxifen in medium 1 µM) | relative IC50 (ZR-75-1 Tam1 [13]) | relative IC50 (ZR-75-1 Tam2 [18]) |
| --- | --- | --- | --- | --- | --- | --- | --- | --- | --- | --- | --- | --- | --- | --- | --- | --- | --- | --- | --- | --- | --- | --- | --- | --- | --- | --- | --- | --- | --- | --- |
| Nc1nc(=O)c2c([nH]1)NCC(CNc1ccc(C(=O)N[C@@H](CCC(=O)O)C(=O)O)cc1)N2C=O (mixture of isomers) [Folinic acid] | > 990000 nM | > 990000 nM | > 990000 nM | > 990000 nM | > 990000 nM | > 990000 nM | > 990000 nM | > 990000 nM | > 990000 nM | > 990000 nM | > 990000 nM | 0.942 | 0 | 0 | 0 | 0 | 0 | 0 | 0 | 0 | 0 | 0 | 0 | 0 | 0 | 0 | > 990000 nM | > 990000 nM | > 990000 nM | > 990000 nM |
| C[C@]12CC[C@H](O)CC1=CC[C@@H]1[C@@H]2CC[C@]2(C)C(c3cccnc3)=CC[C@@H]12 [Abiraterone (CB-7598)] | > 5000 nM | > 5000 nM | > 5000 nM | > 5000 nM | > 5000 nM | > 5000 nM | > 5000 nM | > 5000 nM | > 5000 nM | > 5000 nM | > 5000 nM | 0 | 0 | 0 | 0 | 0 | 0 | 0 | 0 | 0 | 0 | 0 | 0 | 0 | 0 | 0 | > 5000 nM | > 5000 nM | > 5000 nM | > 5000 nM |
| CN(C)c1nc(N(C)C)nc(N(C)C)n1 [Altretamine] | > 10000 nM |  | > 10000 nM | > 10000 nM | > 10000 nM | > 10000 nM | > 10000 nM | > 10000 nM |  | 3370 nM | > 10000 nM | 0 | 0 | 0 | 0 | 0.283 | 0 | 0 | 0 | 0 | 0 | 0 | 0 | 0.0496 | 2.61 | 0 | > 10000 nM | > 10000 nM | > 10000 nM | > 10000 nM |
| CO[C@H]1/C=C\C=C(/C)C(=O)NC2=CC(=O)C(NCCN(C)C)=C(C[C@@H](C)C[C@H](OC)[C@H](O)[C@@H](C)/C=C(\C)[C@@H]1OC(N)=O)C2=O [Alvespimycin (17-DMAG)] | 259 nM | 142 nM | 48 nM | 14.6 nM | 13.1 nM | 8.88 nM | 15.3 nM | 22.5 nM | 30 nM | 424 nM | 196 nM | 3.36 | 6.21 | 3.49 | 3.17 | 3.41 | 4.36 | 17.6 | 12.2 | 19.4 | 5.93 | 16.9 | 12.6 | 8.71 | 1.14 | 3.87 | 85.8 nM | 75.2 nM | 95 nM | 71 nM |
| Cn1cncc1[C@@](N)(c1ccc(Cl)cc1)c1ccc2c(c1)c(-c1cccc(Cl)c1)cc(=O)n2C [Tipifarnib  (Zarnestra)] |  |  | 1510 nM | 1410 nM | 817 nM | 1650 nM | 1500 nM | 277 nM | 329 nM | 862 nM | 877 nM | 6.34 | 7.52 | 7.03 | 3.25 | 0.489 | 3.82 | 7.37 | 4.27 | 6.99 | 6.76 | 7.78 | 11 | 12.6 | 6.21 | 4.67 | 606 nM | 405 nM | 762 nM | 808 nM |

Continued, in another order:

| relative IC50 (T-47D [14]; 4-OH-tamoxifen in medium 0 µM) | relative IC50 (T-47D [14]; 4-OH-tamoxifen in medium 1 µM) | relative IC50 (MCF-7 Tam1 [15]) | relative IC50 (BT-474 Tam2 [16]) | relative IC50 (BT-474 [17]; 4-OH-tamoxifen in medium 0 µM) | relative IC50 (BT-474 [17]; 4-OH-tamoxifen in medium 1 µM) | relative IC50 (BT-474 Tam1 [19]) | relative IC50 (MCF-7 [20]; 4-OH-tamoxifen in medium 0 µM) | relative IC50 (MCF-7 [20]; 4-OH-tamoxifen in medium 1 µM) | relative IC50 (T-47D Tam1 [21]) | relative IC50 (T-47D Tam2 [22]) | Structure (SMILES) | drug sensitivity score (ZR-75-1 [1]; 4-OH-tamoxifen in medium 0 µM) | drug sensitivity score (ZR-75-1 [1]; 4-OH-tamoxifen in medium 1 µM) | drug sensitivity score (ZR-75-1 Tam1 [2]) | drug sensitivity score (T-47D [3]; 4-OH-tamoxifen in medium 0 µM) | drug sensitivity score (T-47D [3]; 4-OH-tamoxifen in medium 1 µM) | drug sensitivity score (MCF-7 Tam1 [4]) | drug sensitivity score (BT-474 Tam2 [5]) | drug sensitivity score (BT-474 [6]; 4-OH-tamoxifen in medium 0 µM) | drug sensitivity score (BT-474 [6]; 4-OH-tamoxifen in medium 1 µM) | drug sensitivity score (ZR-75-1 Tam2 [7]) | drug sensitivity score (BT-474 Tam1 [8]) | drug sensitivity score (MCF-7 [9]; 4-OH-tamoxifen in medium 0 µM) | drug sensitivity score (MCF-7 [9]; 4-OH-tamoxifen in medium 1 µM) | drug sensitivity score (T-47D Tam1 [10]) | drug sensitivity score (T-47D Tam2 [11]) | relative IC50 (ZR-75-1 [12]; 4-OH-tamoxifen in medium 0 µM) | relative IC50 (ZR-75-1 [12]; 4-OH-tamoxifen in medium 1 µM) | relative IC50 (ZR-75-1 Tam1 [13]) | relative IC50 (ZR-75-1 Tam2 [18]) |
| --- | --- | --- | --- | --- | --- | --- | --- | --- | --- | --- | --- | --- | --- | --- | --- | --- | --- | --- | --- | --- | --- | --- | --- | --- | --- | --- | --- | --- | --- | --- |
| 61.1 nM | 423 nM | 147 nM | 399 nM | 60.7 nM | 267 nM | 378 nM | 48.4 nM | 130 nM | 39.9 nM | 227 nM | COc1ccc(-c2ccc3c(N4CCOC[C@@H]4C)nc(N4CCOC[C@@H]4C)nc3n2)cc1CO [AZD8055] | 18.4 | 17.4 | 16.2 | 16.7 | 8.08 | 6.06 | 8.38 | 11.8 | 13.6 | 19.8 | 12.7 | 20.2 | 11.5 | 17.1 | 10.2 | 31.3 nM | 12.3 nM | 38.9 nM | 18.5 nM |
|  |  | > 10000 nM | 857 nM |  | 1040 nM | 1780 nM | 369 nM | 553 nM | 1120 nM | 1080 nM | C=CCn1c(=O)c2cnc(Nc3ccc(N4CCN(C)CC4)cc3)nc2n1-c1cccc(C(C)(C)O)n1 [MK-1775] | 0.795 | 0.472 | 0 | 2.12 | 1.93 | 0 | 2.77 | 2.85 | 4.97 | 0 | 3.33 | 7.89 | 5.16 | 4.22 | 4.14 |  |  | > 10000 nM | > 10000 nM |
